The text below walks through data of ChEMBL document CHEMBL4033666, “Synthesis and mechanistic evaluation of novel N'-benzylidene-carbohydrazide-1H-pyrazolo[3,4-b]pyridine derivatives as non-anionic antiplatelet agents” (Eur J Med Chem, 2017).

Data set [1] deals with Platelet. Nature of the data set: Antiplatelet activity in human platelet rich plasma assessed as inhibition of arachidonic acid-induced platelet aggregation at 100 uM preincubated for 2 mins followed by arachidonic acid addition by turbidimetric method relative to control. In kind it is functional.
For data set [2], the system named is Platelet. Briefly: Antiplatelet activity in human platelet rich plasma assessed as inhibition of ADP-induced platelet aggregation at 100 uM preincubated for 2 mins followed by ADP addition by turbidimetric method relative to control. In kind it is cell-based.
Data set [3] deals with Platelet. Briefly: Antiplatelet activity in human platelet rich plasma assessed as inhibition of collagen-induced platelet aggregation at 100 uM preincubated for 2 mins followed by collagen addition by turbidimetric method relative to control. In kind it is cell-based.
The subject of data set [4] is Platelet. Briefly: Antiplatelet activity in human platelet rich plasma assessed as inhibition of epinephrine-induced platelet aggregation at 100 uM preincubated for 2 mins followed by epinephrine addition by turbidimetric method relative to control. Format: cell-based.
The test system of data set [5] is Platelet. Nature of the data set: Antiplatelet activity in human platelet rich plasma assessed as inhibition of arachidonic acid-induced platelet aggregation preincubated for 2 mins followed by arachidonic acid addition by turbidimetric method relative to control. In kind it is functional, cell-based.
Data set [6] concerns Platelet. Nature of the data set: Antiplatelet activity in human platelet rich plasma assessed as inhibition of ADP-induced platelet aggregation preincubated for 2 mins followed by ADP addition by turbidimetric method. Format: cell-based.
Data set [7] concerns Platelet. Briefly: Antiplatelet activity in human platelet rich plasma assessed as inhibition of collagen-induced platelet aggregation preincubated for 2 mins followed by collagen addition by turbidimetric method. In kind it is cell-based.
Data set [8] deals with Platelet. Nature of the data set: Antiplatelet activity in human platelet rich plasma assessed as inhibition of epinephrine-induced platelet aggregation preincubated for 2 mins followed by epinephrine addition by turbidimetric method. Format: cell-based.
Data set [9] concerns the target T1, Prostaglandin G/H synthase 1 (Ovis aries, UniProt P05979).
T1 sequence (P05979 whole entry): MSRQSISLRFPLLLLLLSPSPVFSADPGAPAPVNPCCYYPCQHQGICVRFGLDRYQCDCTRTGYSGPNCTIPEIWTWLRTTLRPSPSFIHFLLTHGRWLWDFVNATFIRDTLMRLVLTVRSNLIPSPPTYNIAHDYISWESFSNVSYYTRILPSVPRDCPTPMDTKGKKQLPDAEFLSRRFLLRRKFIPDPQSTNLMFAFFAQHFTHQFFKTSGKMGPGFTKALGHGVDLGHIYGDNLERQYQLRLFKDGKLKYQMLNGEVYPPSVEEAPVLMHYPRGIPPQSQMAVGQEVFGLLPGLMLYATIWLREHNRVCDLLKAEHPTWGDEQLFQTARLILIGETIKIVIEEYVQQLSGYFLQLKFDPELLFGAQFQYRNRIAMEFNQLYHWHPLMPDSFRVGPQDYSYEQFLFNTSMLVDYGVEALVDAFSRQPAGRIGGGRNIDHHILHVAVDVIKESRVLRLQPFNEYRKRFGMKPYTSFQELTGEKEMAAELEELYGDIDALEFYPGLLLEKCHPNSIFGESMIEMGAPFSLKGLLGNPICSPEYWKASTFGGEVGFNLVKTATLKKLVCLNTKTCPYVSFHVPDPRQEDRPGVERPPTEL
Briefly: Inhibition of ovine COX-1 assessed as reduction in PGH2 production up to 100 uM using arachidonic acid as substrate preincubated for 5 mins followed by substrate and hematin addition measured after 2 mins by ELISA relative to control. The conditions noted are these: sheep.

The target in data set [10] is T2, Prostaglandin G/H synthase 2 (Homo sapiens, UniProt P35354).
T2 sequence (P35354 whole entry): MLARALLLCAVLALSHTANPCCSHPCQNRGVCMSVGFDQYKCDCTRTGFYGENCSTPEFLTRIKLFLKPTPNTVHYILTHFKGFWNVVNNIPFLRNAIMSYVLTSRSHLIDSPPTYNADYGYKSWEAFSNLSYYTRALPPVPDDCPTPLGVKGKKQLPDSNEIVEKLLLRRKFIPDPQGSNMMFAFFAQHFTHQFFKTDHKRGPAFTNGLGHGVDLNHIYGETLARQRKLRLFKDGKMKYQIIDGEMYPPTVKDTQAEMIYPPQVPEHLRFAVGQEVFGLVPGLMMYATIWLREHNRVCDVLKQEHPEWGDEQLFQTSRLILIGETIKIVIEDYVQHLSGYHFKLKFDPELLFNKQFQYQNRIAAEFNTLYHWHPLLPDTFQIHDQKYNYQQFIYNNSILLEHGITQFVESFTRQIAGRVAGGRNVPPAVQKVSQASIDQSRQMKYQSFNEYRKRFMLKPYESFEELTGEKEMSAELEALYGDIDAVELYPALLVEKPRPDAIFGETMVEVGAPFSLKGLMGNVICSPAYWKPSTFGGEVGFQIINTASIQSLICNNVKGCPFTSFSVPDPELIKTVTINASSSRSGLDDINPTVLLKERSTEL
Nature of the data set: Inhibition of recombinant human COX-2 assessed as reduction in PGH2 production up to 100 uM using arachidonic acid as substrate preincubated for 5 mins followed by substrate and hematin addition measured after 2 mins by ELISA relative to control.

The target of data set [11] is T3, Thromboxane-A synthase (Homo sapiens) (UniProt P24557).
T3 sequence (whole entry): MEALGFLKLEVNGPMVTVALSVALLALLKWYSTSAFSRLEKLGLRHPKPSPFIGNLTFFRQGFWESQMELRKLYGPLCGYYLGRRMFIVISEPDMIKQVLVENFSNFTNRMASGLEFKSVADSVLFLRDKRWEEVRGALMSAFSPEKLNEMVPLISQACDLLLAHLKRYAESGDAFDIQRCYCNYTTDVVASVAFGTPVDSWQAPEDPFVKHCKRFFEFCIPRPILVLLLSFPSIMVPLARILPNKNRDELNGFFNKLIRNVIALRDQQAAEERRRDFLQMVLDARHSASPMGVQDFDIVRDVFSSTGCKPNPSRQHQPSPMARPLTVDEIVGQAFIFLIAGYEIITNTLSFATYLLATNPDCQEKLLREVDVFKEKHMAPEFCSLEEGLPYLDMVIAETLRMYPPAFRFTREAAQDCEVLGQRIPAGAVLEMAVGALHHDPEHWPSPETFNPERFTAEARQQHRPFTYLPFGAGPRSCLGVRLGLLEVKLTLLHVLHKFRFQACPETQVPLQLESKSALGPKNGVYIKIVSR
Briefly: Inhibition of TXS in human platelet rich plasma assessed as decrease in TXB2 production at 100 uM using arachidonic acid after 5 mins by ELISA.

Data set [12] can be described thus: Binding affinity to DOPC/DOPS large unilamellar vesicles assessed as blue shift at 100 uM by DAPI staining based fluorescence assay.
The test system of data set [13] is Platelet. Briefly: Drug uptake in human platelet assessed as co-localization with CD31 at 100 uM by epifluorescence assay. Format: ADME, cell-based.
In data set [14] the test system is Platelet. Nature of the data set: Drug uptake in human platelet assessed as co-localization with CD31 at 100 uM by confocal microscopy analysis. In kind it is ADME, cell-based.
Data set [15] is described as follows: Hemolytic activity against human erythrocytes after 3 hrs relative to control. Format: ADME, cell-based, Erythrocyte. Particulars: read-out: Activity.
A further data set has as its target Cytochrome P450 3A4 (Homo sapiens, UniProt P08684). Nature of the data set: Inhibition of recombinant human CYP3A4 expressed in baculosomes using BOMR as substrate preincubated for 10 mins followed by substrate/NADP+ addition measured for 1 hr. Format: ADME. Particulars: for inhibition (INH): human, recombinant enzyme, 1 h.
For data set [16], the system named is Platelet. Nature of the data set: Antiplatelet activity in human platelet rich plasma assessed as inhibition of […]-induced platelet aggregation at 100 uM preincubated for 2 mins followed by […] addition by turbidimetric method. In kind it is functional, cell-based.
In another data set the test system is Blood. Briefly: Reduction of clot retraction in human whole blood after 2 hrs. Format: ADME, tissue-based.
For data set [17], the system named is Plasma. Briefly: Change in prothrombin time in human plasma at 100 uM incubated for 15 mins at room temperature and 2 mins at 37 degC in presence of calcium thromboplastin. Format: ADME, cell-free.
Data set [18] has as its system Plasma. Briefly: Change in activated partial thromboplastin time in human plasma at 100 uM incubated for 15 mins at room temperature and 2 mins at 37 degC in presence of CaCl2. Format: ADME, cell-free.
The target of data set [19] is Prostaglandin G/H synthase 1 (Homo sapiens, UniProt P23219). Briefly: Inhibition of COX1 in human platelet rich plasma assessed as decrease in PGE2 production at 100 uM using arachidonic acid as substrate after 5 mins by ELISA.
Data set [20] relates to Platelet. Briefly: Potency index, ratio of aspirin IC50 to test compound IC50 for inhibition of arachidonic acid-induced platelet aggregation in human platelet rich plasma. Format: functional.
Data set [21] in a line: Selectivity ratio of IC50 for recombinant human CYP3A4 to IC50 for arachidonic acid-induced platelet aggregation in human platelet rich plasma.
Data set [22] deals with Platelet. Nature of the data set: Potency index, ratio of ozagrel IC50 to test compound IC50 for inhibition of arachidonic acid-induced platelet aggregation in human platelet rich plasma. In kind it is functional.

Molecules are shown by their SMILES. The source made the active and inactive calls. Unless noted, the rule behind the calls is not given here.

Sequence of Cytochrome P450 3A4 (P08684 whole entry): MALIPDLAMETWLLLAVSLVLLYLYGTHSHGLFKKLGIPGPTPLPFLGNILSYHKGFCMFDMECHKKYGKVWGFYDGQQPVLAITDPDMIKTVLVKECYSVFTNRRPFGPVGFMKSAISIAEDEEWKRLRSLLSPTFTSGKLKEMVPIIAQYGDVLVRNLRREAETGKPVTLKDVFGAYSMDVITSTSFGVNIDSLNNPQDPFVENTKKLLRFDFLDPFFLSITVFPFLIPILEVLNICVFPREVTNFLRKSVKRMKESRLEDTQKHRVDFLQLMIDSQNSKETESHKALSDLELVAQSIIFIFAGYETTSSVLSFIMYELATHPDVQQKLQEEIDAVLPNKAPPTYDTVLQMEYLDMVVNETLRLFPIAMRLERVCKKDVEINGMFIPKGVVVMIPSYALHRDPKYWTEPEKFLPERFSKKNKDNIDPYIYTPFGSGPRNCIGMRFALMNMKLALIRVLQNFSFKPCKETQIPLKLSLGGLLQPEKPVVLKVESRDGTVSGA
Sequence of Prostaglandin G/H synthase 1 (Homo sapiens, UniProt P23219) (P23219 whole entry): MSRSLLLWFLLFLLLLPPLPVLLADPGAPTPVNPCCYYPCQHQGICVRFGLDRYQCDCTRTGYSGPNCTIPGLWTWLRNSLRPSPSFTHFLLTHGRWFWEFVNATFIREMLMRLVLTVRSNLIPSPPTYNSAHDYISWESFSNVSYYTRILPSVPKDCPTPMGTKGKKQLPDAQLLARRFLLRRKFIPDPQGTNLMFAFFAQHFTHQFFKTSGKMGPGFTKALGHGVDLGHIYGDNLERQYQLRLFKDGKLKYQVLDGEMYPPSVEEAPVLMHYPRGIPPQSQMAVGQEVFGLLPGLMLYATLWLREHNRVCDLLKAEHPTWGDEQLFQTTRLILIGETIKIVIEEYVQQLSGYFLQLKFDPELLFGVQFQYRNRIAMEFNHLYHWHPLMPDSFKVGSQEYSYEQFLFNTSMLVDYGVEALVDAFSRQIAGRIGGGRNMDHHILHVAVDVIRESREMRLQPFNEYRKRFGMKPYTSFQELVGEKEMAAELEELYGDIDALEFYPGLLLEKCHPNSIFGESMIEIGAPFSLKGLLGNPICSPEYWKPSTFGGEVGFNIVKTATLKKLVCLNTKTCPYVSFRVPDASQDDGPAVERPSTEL

With `Cc1cc(C(=O)N/N=C/c2ccc([N+](=O)[O-])cc2)c2c(C)nn(-c3ccccc3)c2n1`, the inhibition at 100 µM is 95% with Platelet [1], 0% in the data set on Platelet [2], 4.1% in the data set on Platelet [3] and 4.15% with Platelet [4]. Also, the IC50 in the data set on Platelet [5] was 78.9 µM; with Platelet [6] it was more than 100 µM; in the data set with Platelet [7] it was more than 100 µM; with Platelet [8], more than 100 µM; at Cytochrome P450 3A4 it was 156 µM. Moreover, the “inhibition (INH)” value in data set [9], in data set [10] and in data set [19] was “Not Active” each time. Further, the inhibition entry in data set [11] is “Active”. Besides, the result in data set [12] was Active. Further, the Drug uptake entry in the data set with Platelet [13] and in the data set with Platelet [14] was “Active” each time. Also, the hemolysis at 3 h in data set [15] was determined as 7.3%. Also, in the data set with Platelet [16], the inhibition entry was “inactive”. In addition, the Activity result with Blood, in the data set with Plasma [17] and in the data set on Plasma [18] was “Non-Toxic” in each case.
In the case of `Cc1cc(C(=O)N/N=C/c2ccc(Br)cc2)c2c(C)nn(-c3ccccc3)c2n1`, the inhibition at 100 µM in the data set with Platelet [1] was found to be 94.8%; in the data set with Platelet [2] it was 9.4%; with Platelet [3], 17%; in the data set on Platelet [4], 11.8%. The IC50 is 3.67 to 10.2 µM with Platelet [5]; more than 100 µM in the data set on Platelet [6]; more than 100 µM in the data set with Platelet [7]; more than 100 µM in the data set with Platelet [8]; 138 µM at Cytochrome P450 3A4. In addition, the “inhibition (INH)” value in data set [9], in data set [10] and in data set [19] was “Not Active” throughout. Further, in data set [11], the inhibition result is “Active”. In addition, the “Ratio IC50” value with Platelet [20] is “<=10”; in data set [21], 20 to 30; in the data set on Platelet [22] it was “<=10”. Further, the outcome in [12] was Active. Besides, the Drug uptake result in the data set with Platelet [13] and in the data set with Platelet [14] was “Active” in each case. In data set [15], the hemolysis at 3 h worked out at 5%. Further, the inhibition result in the data set with Platelet [16] was “inactive”. Besides, the Activity entry in the data set with Blood, in the data set on Plasma [17] and with Plasma [18] was “Non-Toxic” throughout.
In the case of `Cc1ccc(/C=N/NC(=O)c2cc(C)nc3c2c(C)nn3-c2ccccc2)cc1`, the inhibition at 100 µM with Platelet [1] was 89.2%; in the data set on Platelet [2], 6.2%; in the data set on Platelet [3], 5.58%; in the data set on Platelet [4], 0%. Moreover, the IC50 with Platelet [5] was 3.67 to 10.2 µM; in the data set on Platelet [6], more than 100 µM; with Platelet [7], more than 100 µM; in the data set on Platelet [8], more than 100 µM. The “inhibition (INH)” value in [9] is “Not Active”; in [10] it was “Not Active”; at Cytochrome P450 3A4, “Dose-dependent effect”; in [19], “Not Active”. In addition, the inhibition result in [11] is “Active”. Moreover, the “Ratio IC50” value with Platelet [20] and in the data set on Platelet [22] was “<=10” each time. The outcome in data set [12] was Active. Besides, the Drug uptake entry in the data set with Platelet [13] and with Platelet [14] was “Active” throughout. Further, the inhibition entry in the data set with Platelet [16] is “inactive”. Besides, the Activity entry in the data set with Blood, in the data set on Plasma [17] and in the data set on Plasma [18] was “Non-Toxic” throughout.
Regarding `Cc1cc(C(=O)N/N=C/c2ccc(F)cc2)c2c(C)nn(-c3ccccc3)c2n1`, the inhibition at 100 µM in the data set with Platelet [1] came out at 95.4%; with Platelet [2] it was 13.8%; in the data set on Platelet [3] it was 9.19%; with Platelet [4], 3.88%. Further, the IC50 with Platelet [5] is 3.67 to 10.2 µM; in the data set on Platelet [6], more than 100 µM; in the data set with Platelet [7], more than 100 µM; with Platelet [8] it was more than 100 µM. Further, the “inhibition (INH)” value in [9] was “Not Active”; in data set [10] it was “Not Active”; at Cytochrome P450 3A4, “Dose-dependent effect”; in data set [19], “Not Active”. The inhibition result in [11] is “Active”. The “Ratio IC50” value in the data set with Platelet [20] and with Platelet [22] was “<=10” in each case. Also, the outcome in data set [12] was Active. The Drug uptake entry in the data set with Platelet [13] and with Platelet [14] was “Active” throughout. Moreover, the hemolysis at 3 h in data set [15] stood at 5%. The inhibition result with Platelet [16] is “inactive”. The Activity entry in the data set on Blood, with Plasma [17] and with Plasma [18] was “Non-Toxic” in each case.
